Earlier results on one compound are cited in US12343354B2, “Injection containing p-boronophenylalanine” (Stella Pharma Corporation, priority 2019, dated 2025).

The conditions of this data set: physiological pH.

Each structure is given as a SMILES string.

`N[C@@H](Cc1ccc(B(O)O)cc1)C(=O)O` [p-Boronophenylalanine, p-boronophenylalanine]: the solubility result is reported as “very poor solubility”.
